From patent publication US10738026B2, “Isoquinoline derivatives and use thereof” (Purdue Pharma L.P., priority 2014, dated 2020)

Key:
human Nav1.7 = human Nav1.7 (Homo sapiens (Human), UniProt Q15858); experiment: FLIPR or FLIPR TETRA sodium dye assay with KCl and test article pre-incubation (sodium mobilization); format: cell-based; conditions: recombinant human Nav1.7 in HEK293; veratridine and scorpion venom as agonists
hNav1.7 = hNav1.7 (Homo sapiens (Human), UniProt Q15858); experiment: Electrophysiology (EP) assay, whole-cell patch clamp in hNav1.7 expressing HEK-293 cells; format: cell-based; conditions: hNav1.7 HEK-293 cells; affinity for the inactivated state of the channel; read-out: Nav1.7 Activity (μM) EP assay Ki
Sequence of hNav1.7 (Q15858 other isoform, or with tags, fused parts or gaps): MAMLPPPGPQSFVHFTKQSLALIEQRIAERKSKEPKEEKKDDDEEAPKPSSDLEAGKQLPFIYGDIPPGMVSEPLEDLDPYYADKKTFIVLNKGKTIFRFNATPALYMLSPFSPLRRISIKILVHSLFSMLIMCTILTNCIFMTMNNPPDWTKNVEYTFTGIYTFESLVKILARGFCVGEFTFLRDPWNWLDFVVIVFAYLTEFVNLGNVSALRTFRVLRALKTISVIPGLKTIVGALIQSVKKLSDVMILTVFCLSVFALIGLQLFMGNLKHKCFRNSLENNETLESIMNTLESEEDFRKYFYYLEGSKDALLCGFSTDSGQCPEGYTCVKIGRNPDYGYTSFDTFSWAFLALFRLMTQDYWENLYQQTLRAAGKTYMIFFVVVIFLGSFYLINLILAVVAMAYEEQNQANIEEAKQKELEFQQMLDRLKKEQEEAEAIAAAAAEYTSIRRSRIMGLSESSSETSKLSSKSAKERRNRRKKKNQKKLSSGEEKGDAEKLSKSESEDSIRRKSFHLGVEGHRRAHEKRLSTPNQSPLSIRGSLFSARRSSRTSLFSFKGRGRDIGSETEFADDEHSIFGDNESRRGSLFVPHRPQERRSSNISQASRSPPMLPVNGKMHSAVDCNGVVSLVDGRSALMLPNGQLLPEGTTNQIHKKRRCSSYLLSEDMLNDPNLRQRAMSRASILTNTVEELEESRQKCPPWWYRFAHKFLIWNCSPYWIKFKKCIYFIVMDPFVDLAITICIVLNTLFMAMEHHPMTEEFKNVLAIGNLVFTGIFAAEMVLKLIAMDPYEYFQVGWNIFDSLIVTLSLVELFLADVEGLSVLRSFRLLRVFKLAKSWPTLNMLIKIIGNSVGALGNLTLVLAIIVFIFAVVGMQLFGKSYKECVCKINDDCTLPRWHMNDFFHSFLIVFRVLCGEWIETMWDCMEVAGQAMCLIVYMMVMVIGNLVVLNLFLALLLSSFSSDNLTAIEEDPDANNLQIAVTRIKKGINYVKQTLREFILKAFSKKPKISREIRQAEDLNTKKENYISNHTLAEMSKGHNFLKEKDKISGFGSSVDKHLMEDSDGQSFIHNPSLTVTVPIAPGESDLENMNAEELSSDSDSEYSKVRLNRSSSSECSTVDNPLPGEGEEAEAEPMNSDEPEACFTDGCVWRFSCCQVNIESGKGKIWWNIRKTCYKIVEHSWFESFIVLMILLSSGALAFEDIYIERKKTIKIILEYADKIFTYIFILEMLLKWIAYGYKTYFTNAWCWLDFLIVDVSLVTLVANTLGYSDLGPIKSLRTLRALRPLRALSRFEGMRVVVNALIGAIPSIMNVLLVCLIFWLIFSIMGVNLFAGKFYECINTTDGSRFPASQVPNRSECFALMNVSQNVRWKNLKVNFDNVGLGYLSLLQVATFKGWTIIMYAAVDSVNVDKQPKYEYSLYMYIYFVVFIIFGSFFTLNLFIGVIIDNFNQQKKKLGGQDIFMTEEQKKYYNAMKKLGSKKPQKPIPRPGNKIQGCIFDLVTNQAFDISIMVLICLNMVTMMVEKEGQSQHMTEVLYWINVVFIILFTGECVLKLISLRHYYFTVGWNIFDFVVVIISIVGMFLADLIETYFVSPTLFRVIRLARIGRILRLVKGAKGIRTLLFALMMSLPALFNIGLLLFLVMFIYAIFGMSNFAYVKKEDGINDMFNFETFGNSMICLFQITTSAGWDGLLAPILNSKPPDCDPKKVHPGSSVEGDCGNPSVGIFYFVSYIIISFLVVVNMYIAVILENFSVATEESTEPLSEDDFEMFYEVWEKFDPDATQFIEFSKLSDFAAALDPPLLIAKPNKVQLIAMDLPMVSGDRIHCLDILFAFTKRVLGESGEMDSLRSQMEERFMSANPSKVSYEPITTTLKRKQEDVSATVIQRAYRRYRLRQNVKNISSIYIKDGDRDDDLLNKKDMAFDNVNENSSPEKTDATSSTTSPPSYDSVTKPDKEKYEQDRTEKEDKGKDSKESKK

Sequence of human Nav1.7 (Q15858 with tags, fused parts or gaps limits assumed): as the sequence (Q15858 other isoform, or with tags, fused parts or gaps) above

SMILES	IC50 (human Nav1.7) [µM]	Ki (hNav1.7) [µM]
C[C@H](Nc1cc(C(N)=O)nc(N2CCc3c(cccc3-c3ccc(C(F)(F)F)cc3)C2)n1)C(N)=O [Compound 22, (S)-6-((1-amino-1-oxopropan-2-yl)amino)-2-(5-(4-(trifluoromethyl)phenyl)-3,4-dihydroisoquinolin-2(1H)-yl)pyrimidine-4-carboxamide]	0.428 ± 0.069	0.317 ± 0.079
C[C@H](Nc1cc(C(N)=O)nc(N2CCc3c(cccc3-c3ccc(C(F)(F)F)cn3)C2)n1)C(N)=O [Compound 23, (S)-6-((1-amino-1-oxopropan-2-yl)amino)-2-(5-(5-(trifluoromethyl)-pyridin-2-yl)-3,4-dihydroisoquinolin-2(1H)-yl)pyrimidine-4-carboxamide]	> 20	–
C[C@H](Nc1cc(C(N)=O)nc(N2CCc3c(cccc3-c3ccccc3C(F)(F)F)C2)n1)C(N)=O [Compound 24, (S)-6-((1-amino-1-oxopropan-2-yl)amino)-2-(5-(2-(trifluoromethyl)-phenyl)-3,4-dihydroisoquinolin-2(1H)-yl)pyrimidine-4-carboxamide]	2.35 ± 0.125	–
NC(=O)c1cccc(N2CCc3c(cccc3-c3ccc(C(F)(F)F)cc3)C2)n1 [Compound 25, 6-(5-(4-(trifluoromethyl)phenyl)-3,4-dihydroisoquinolin-2(1H)-yl)picolinamide]	0.987 ± 0.072	–
NC(=O)[C@@H](O)[C@H](O)c1cccc(N2CCc3c(cccc3-c3ccc(C(F)(F)F)cc3)C2)n1 [Compound 26, (2S,3R)-2,3-dihydroxy-3-(6-(5-(4-(trifluoromethyl)phenyl)-3,4-dihydroisoquinolin-2(1H)-yl)pyridin-2-yl)propanamide]	0.251 ± 0.017	0.051 ± 0.014
C[C@H](Nc1cc(C(N)=O)nc(N2CCc3c(cccc3-c3cccc(C(F)(F)F)c3)C2)n1)C(N)=O [Compound 27, (S)-6-((1-amino-1-oxopropan-2-yl)amino)-2-(5-(3-(trifluoromethyl)phenyl)-3,4-dihydroisoquinolin-2(1H)-yl)pyrimidine-4-carboxamide]	1.52 ± 0.122	0.24 ± 0.041
C[C@H](Nc1cc(C(N)=O)nc(N2CCc3c(cccc3C3=CCCCC3)C2)n1)C(N)=O [Compound 28, (S)-6-((1-amino-1-oxopropan-2-yl)amino)-2-(5-(cyclohex-1-en-1-yl)-3,4-dihydroisoquinolin-2(1H)-yl)pyrimidine-4-carboxamide]	2.84 ± 0.112	–
O=S(=O)(Nc1ncns1)c1cccc(N2CCc3c(cccc3-c3ccc(C(F)(F)F)cc3)C2)n1 [Compound 29, N-(1,2,4-thiadiazol-5-yl)-6-(5-(4-(trifluoromethyl)phenyl)-3,4-dihydroisoquinolin-2(1H)-yl)pyridine-2-sulfonamide]	0.291 ± 0.019	0.535 ± 0.145
C[C@H](Nc1cc(C(N)=O)nc(N2CCc3c(cccc3C3CCCCC3)C2)n1)C(N)=O [Compound 31, (S)-6-((1-amino-1-oxopropan-2-yl)amino)-2-(5-cyclohexyl-3,4-dihydroisoquinolin-2(1H)-yl)pyrimidine-4-carboxamide]	2.2 ± 0.898	–
NC(=O)c1cc(N2CCc3c(cccc3-c3ccc(C(F)(F)F)cc3)C2)cc([C@H](O)CO)n1 [Compound 35, (S)-6-(1,2-dihydroxyethyl)-4-(5-(4-(trifluoromethyl)phenyl)-3,4-dihydroisoquinolin-2(1H)-yl)picolinamide]	0.502 ± 0.031	0.232 ± 0.065
NC(=O)c1cc(N2CCc3c(cccc3-c3ccc(C(F)(F)F)cc3)C2)cc([C@@H](O)CO)n1 [Compound 36, (R)-6-(1,2-dihydroxyethyl)-4-(5-(4-(trifluoromethyl)phenyl)-3,4-dihydro-isoquinolin-2(1H)-yl)picolinamide]	1.54 ± 0.229	0.257 ± 0.046
